ChEMBL document CHEMBL5634076, “Optimization of pyridylpiperazine-based inhibitors of the Escherichia coli AcrAB-TolC efflux pump” (Eur J Med Chem, 2023)
In brackets after ≈: the same amount, converted by molar mass.

Experiments:
[1] = biological target: T1, Multidrug efflux pump subunit AcrB (Escherichia coli (strain K12)) (UniProt P31224); assay: Potency index, ratio of BDM73185 EC90 to test compound EC90 for inhibition of AcrAB-TolC in Escherichia coli BW25113
T1 sequence (whole entry): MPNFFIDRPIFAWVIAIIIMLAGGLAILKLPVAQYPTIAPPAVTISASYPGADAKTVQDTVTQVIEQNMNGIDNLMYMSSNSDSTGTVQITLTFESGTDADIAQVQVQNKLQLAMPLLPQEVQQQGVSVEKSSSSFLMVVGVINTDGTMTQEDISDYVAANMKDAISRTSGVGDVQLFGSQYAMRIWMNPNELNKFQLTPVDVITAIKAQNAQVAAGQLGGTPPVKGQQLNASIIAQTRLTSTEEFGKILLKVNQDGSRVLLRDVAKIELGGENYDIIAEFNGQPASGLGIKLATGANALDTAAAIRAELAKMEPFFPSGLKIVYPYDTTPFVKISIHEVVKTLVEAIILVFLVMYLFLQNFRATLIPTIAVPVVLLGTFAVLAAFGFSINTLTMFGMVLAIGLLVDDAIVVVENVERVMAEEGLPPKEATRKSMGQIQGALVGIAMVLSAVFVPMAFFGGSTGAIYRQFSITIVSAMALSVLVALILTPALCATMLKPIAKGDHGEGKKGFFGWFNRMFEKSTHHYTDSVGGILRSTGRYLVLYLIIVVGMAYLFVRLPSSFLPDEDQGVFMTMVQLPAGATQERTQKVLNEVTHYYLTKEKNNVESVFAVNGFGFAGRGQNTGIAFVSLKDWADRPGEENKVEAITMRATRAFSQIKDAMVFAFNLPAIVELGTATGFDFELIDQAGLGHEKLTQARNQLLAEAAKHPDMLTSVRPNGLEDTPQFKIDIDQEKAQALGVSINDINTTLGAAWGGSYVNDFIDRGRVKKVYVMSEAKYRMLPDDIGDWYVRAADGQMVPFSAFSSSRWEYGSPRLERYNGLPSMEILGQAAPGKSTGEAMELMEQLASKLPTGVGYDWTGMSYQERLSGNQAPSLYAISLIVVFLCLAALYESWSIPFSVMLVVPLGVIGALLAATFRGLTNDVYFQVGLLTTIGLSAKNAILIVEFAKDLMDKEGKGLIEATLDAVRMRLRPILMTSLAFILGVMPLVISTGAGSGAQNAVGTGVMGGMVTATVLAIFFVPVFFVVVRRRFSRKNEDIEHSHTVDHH

Escherichia coli [2] = assay: Antibacterial activity against Escherichia coli BW25113 assessed as reduction in bacterial growth incubated for 20 hrs by resazurin microtitre assay; type: functional
[3] = biological target: T1, Multidrug efflux pump subunit AcrB (Escherichia coli (strain K12)); assay: Inhibition of AcrB in Escherichia coli BW25113 assessed as potentiation of pyridomycin-induced antibacterial activity incubated for 20 hrs by resazurin microtitre assay
Escherichia coli [4] = assay: Selectivity ratio of EC90 for inhibition of AcrB Glu947Gln mutant in Escherichia coli BW25113 to inhibition of AcrB in Escherichia coli BW25113 incubated for 20 hrs by resazurin microtitre assay
Escherichia coli [5] = assay: Inhibition of AcrB Asp951Asn mutant in Escherichia coli BW25113 assessed as potentiation of pyridomycin-induced antibacterial activity incubated for 20 hrs by resazurin microtitre assay
Escherichia coli [6] = assay: Selectivity ratio of EC90 for inhibition of AcrB Asp951Asn mutant in Escherichia coli BW25113 to inhibition of AcrB in Escherichia coli BW25113 incubated for 20 hrs by resazurin microtitre assay
Escherichia coli [7] = assay: Inhibition of AcrB Glu947Gln mutant in Escherichia coli BW25113 assessed as potentiation of pyridomycin-induced antibacterial activity incubated for 20 hrs by resazurin microtitre assay
Escherichia coli [8] = assay: Antibacterial activity against Escherichia coli BW25113 assessed as reduction in bacterial growth incubated up to 18 hrs by resazurin microtitre assay; type: functional

| SMILES | MIC (Escherichia coli [2]) [µM] | EC90 [3] [µM] | also measured |
| --- | --- | --- | --- |
| CCOC(=O)c1cnc(N2CCNCC2)c(Cl)c1 | > 250 | 12 | Ratio [1]: 3 |
| O=C(CBr)c1cnc(N2CCN(C(=O)OCC(Cl)(Cl)Cl)CC2)c(Cl)c1 | > 250 |  |  |
| NCc1cccc(COc2cnc(N3CCNCC3)c(Cl)c2)c1 | > 250 | 10 | Ratio (Escherichia coli [4]): > 25; EC90 (Escherichia coli [5]): 250 µM; Ratio (Escherichia coli [6]): 25; EC90 (Escherichia coli [7]): > 250 µM |
| CCN1CCN(C(=O)N[C@@H](C(=O)N[C@@H]2C(=O)N3[C@@H]2SC(C)(C)[C@@H]3C(=O)O)c2ccccc2)C(=O)C1=O [PIPERACILLIN] |  |  | MIC95 (Escherichia coli [8]): 4 µg/mL (≈ 7.73 µM) |
| C[C@@H]1CNCCN1c1ncc(C(F)(F)F)cc1Cl | > 250 | > 500 |  |
| Cc1nc(-c2cnc(N3CCNCC3)c(Cl)c2)no1 | > 250 | 78 |  |
| CC(C)(C)OC(=O)N1CCN(c2ncc(/C(N)=N/O)cc2Cl)CC1 | > 250 |  |  |
| CC(C)(C)OC(=O)N1CCN(c2ncc(N)cc2Cl)CC1 | > 250 |  |  |
| Cc1nnc(-c2cnc(N3CCNCC3)c(Cl)c2)o1 | > 250 | 187 |  |
| FC(F)(F)c1cc(I)cnc1N1CCNCC1 | > 250 | 94 |  |
| OCc1cc(C(F)(F)F)cnc1N1CCNCC1 | > 250 | > 500 |  |
| OCc1cnc(N2CCNCC2)c(Cl)c1 | > 250 | > 250 |  |
| C[C@@H]1CN(c2ncc(C(F)(F)F)cc2Cl)C[C@H](C)N1 | > 250 | > 500 |  |
| CC(=O)O[C@H]1C[C@@]2(C)[C@@H](C[C@@H](O)[C@H]3[C@@]4(C)CC[C@@H](O)[C@@H](C)[C@@H]4CC[C@@]32C)/C1=C(\CCC=C(C)C)C(=O)O [FUSIDIC ACID] |  |  | MIC95 (Escherichia coli [2]): > 128 µg/mL |
| CS(=O)(=O)Nc1cnc(N2CCNCC2)c(Cl)c1 | > 250 | > 250 |  |
| O=C(Oc1ccccc1)c1cnc(N2CCNCC2)c(Cl)c1 | > 250 | 23 |  |
| NCc1cccc(OCc2cnc(N3CCNCC3)c(Cl)c2)c1 | > 250 | 23 | Ratio (Escherichia coli [4]): > 11; EC90 (Escherichia coli [5]): > 250 µM; Ratio (Escherichia coli [6]): > 11; EC90 (Escherichia coli [7]): > 250 µM |
| O=C1CN(c2ncc(C(F)(F)F)cc2Cl)CCN1 | > 250 | > 500 |  |
| CC(=O)NC[C@H]1CN(c2ccc(N3CCOCC3)c(F)c2)C(=O)O1 [LINEZOLID] |  |  | MIC95 (Escherichia coli [2]): > 128 µg/mL |
| NCCc1ccc(C(=O)Nc2cnc(N3CCNCC3)c(Cl)c2)cc1 | > 250 | 47 |  |
| Cc1nc(-c2cnc(N3CCNCC3)c(Cl)c2)cs1 | > 250 | 187 |  |
| O=C(OCCc1ccccc1)c1cnc(N2CCNCC2)c(Cl)c1 | > 250 | 62 |  |
| FC(F)(F)c1cnc(C2=CCNCC2)c(Cl)c1 | > 250 | > 250 |  |
| O=C(OCc1ccccc1)c1cnc(N2CCNCC2)c(Cl)c1 | > 250 | 156 |  |

| SMILES | MIC (Escherichia coli [2]) [µM] | EC90 [3] [µM] | also measured |
| --- | --- | --- | --- |
| NCc1nc(-c2cnc(N3CCNCC3)c(Cl)c2)no1 | > 250 | 81 | Ratio (Escherichia coli [4]): 3; EC90 (Escherichia coli [5]): 250 µM; Ratio (Escherichia coli [6]): 3; EC90 (Escherichia coli [7]): 250 µM |
| CC[C@H]1OC(=O)[C@H](C)[C@@H](O[C@H]2C[C@@](C)(OC)[C@@H](O)[C@H](C)O2)[C@H](C)[C@@H](O[C@@H]2O[C@H](C)C[C@H](N(C)C)[C@H]2O)[C@](C)(O)C[C@@H](C)C(=O)[C@H](C)[C@@H](O)[C@]1(C)O [ERYTHROMYCIN] |  |  | MIC95 (Escherichia coli [8]): 128 µg/mL (≈ 174 µM) |
| NCCCc1nc(-c2cnc(N3CCNCC3)c(Cl)c2)no1 | > 250 | 21 | Ratio (Escherichia coli [4]): > 12; EC90 (Escherichia coli [5]): > 250 µM; Ratio (Escherichia coli [6]): > 12; EC90 (Escherichia coli [7]): > 250 µM |
| CC(=O)Nc1cnc(N2CCNCC2)c(Cl)c1 | > 250 | 187 |  |
| CNC(=O)c1cnc(N2CCNCC2)c(Cl)c1 | > 250 | > 250 |  |
| O=C(O)c1cnc(N2CCNCC2)c(Cl)c1 | > 250 |  |  |
| NCCNc1ncc(C(F)(F)F)cc1Cl | > 250 | > 500 |  |
| NCCOC(=O)c1cnc(N2CCNCC2)c(Cl)c1 | > 250 | > 250 |  |
| FC(F)(F)c1ccc(N2CCNCC2)nc1 | > 250 | > 500 |  |
| O=C(Oc1cccc(CO)c1)c1cnc(N2CCNCC2)c(Cl)c1 | > 250 | 26 | Ratio (Escherichia coli [4]): 2.4; EC90 (Escherichia coli [5]): 62 µM; Ratio (Escherichia coli [6]): 2.4; EC90 (Escherichia coli [7]): 62 µM |
| Cc1onc(-c2ccccc2)c1C(=O)N[C@@H]1C(=O)N2[C@@H]1SC(C)(C)[C@@H]2C(=O)O [OXACILLIN] |  |  | MIC95 (Escherichia coli [2]): > 128 µg/mL |
| Cc1nc(-c2cnc(N3CCNCC3)c(Cl)c2)co1 | > 250 | > 250 |  |
| NCCc1ccc(OC(=O)c2cnc(N3CCNCC3)c(Cl)c2)cc1 | > 250 | 3 | Ratio (Escherichia coli [4]): 3; EC90 (Escherichia coli [5]): 23 µM; Ratio (Escherichia coli [6]): 8; EC90 (Escherichia coli [7]): 8 µM |
| O=C(OCCCc1ccccc1)c1cnc(N2CCNCC2)c(Cl)c1 | 250 (≈ 90 µg/mL) | 250 |  |
| C[C@H]1CNCCN1c1ncc(C(F)(F)F)cc1Cl | > 250 | > 500 |  |
| NCc1cccc(NC(=O)c2cnc(N3CCNCC3)c(Cl)c2)c1 | > 250 | 156 |  |
| FC(F)(F)c1cnc(N2CCNCC2)c(Br)c1 | > 250 | 16 |  |
| CO[C@@H]1[C@@H](OC(N)=O)[C@@H](O)[C@H](Oc2ccc3c(O)c(NC(=O)c4ccc(O)c(CC=C(C)C)c4)c(=O)oc3c2C)OC1(C)C [NOVOBIOCIN] |  |  | MIC95 (Escherichia coli [2]): 80 µg/mL (≈ 131 µM) |
| COC(=O)c1cnc(N2CCNCC2)c(Cl)c1 | > 250 | 20 | Ratio [1]: 3 |
| O=C(O)c1cn(C2CC2)c2cc(N3CCNCC3)c(F)cc2c1=O [CIPROFLOXACIN] |  |  | MIC95 (Escherichia coli [2]): 0.01 µg/mL (≈ 0.0302 µM) |
| NCCc1ccc(NC(=O)c2cnc(N3CCNCC3)c(Cl)c2)cc1 | > 250 | 187 |  |
| NC1CCN(c2ncc(C(F)(F)F)cc2Cl)CC1 | > 250 | 500 |  |
| O=C(N[C@H](CO)[C@H](O)c1ccc([N+](=O)[O-])cc1)C(Cl)Cl [CHLORAMPHENICOL] |  |  | MIC95 (Escherichia coli [2]): 8 µg/mL (≈ 24.8 µM) |
| FC(F)(F)c1cnc(N2CCCNCC2)c(Cl)c1 | > 250 | > 500 |  |
